Key:
[1] = target: RAC-alpha serine/threonine-protein kinase (Homo sapiens) (UniProt P31749); assay: Inhibition of human AKT1 at 500 nM by HotSpot assay relative to control
[2] = target: T1, Activin receptor type-1B (Homo sapiens) (UniProt P36896); assay: Inhibition of human ALK4 at 500 nM by HotSpot assay relative to control
T1 sequence (whole entry): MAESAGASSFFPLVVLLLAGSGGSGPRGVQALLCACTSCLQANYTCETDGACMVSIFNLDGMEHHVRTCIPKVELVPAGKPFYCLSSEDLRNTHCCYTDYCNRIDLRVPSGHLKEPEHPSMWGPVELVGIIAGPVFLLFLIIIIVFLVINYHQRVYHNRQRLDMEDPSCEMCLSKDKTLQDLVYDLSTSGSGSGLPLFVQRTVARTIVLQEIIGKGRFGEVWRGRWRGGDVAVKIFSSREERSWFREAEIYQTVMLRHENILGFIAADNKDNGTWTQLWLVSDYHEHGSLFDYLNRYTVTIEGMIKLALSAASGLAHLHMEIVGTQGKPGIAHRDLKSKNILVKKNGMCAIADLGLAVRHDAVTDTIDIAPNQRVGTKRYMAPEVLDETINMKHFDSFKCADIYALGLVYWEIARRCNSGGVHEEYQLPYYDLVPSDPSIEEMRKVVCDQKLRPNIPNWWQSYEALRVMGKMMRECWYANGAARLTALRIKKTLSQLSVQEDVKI

[3] = target: Cyclin-dependent kinase 7/ cyclin H (Homo sapiens) (UniProt P51946+P50613); assay: Inhibition of human CDK7/cyclin H at 500 nM by HotSpot assay relative to control; format: protein-complex assay
[4] = target: T2, Ephrin type-A receptor 3 (Homo sapiens) (UniProt P29320); assay: Inhibition of human EPHA3 at 500 nM by HotSpot assay relative to control
T2 sequence (whole entry): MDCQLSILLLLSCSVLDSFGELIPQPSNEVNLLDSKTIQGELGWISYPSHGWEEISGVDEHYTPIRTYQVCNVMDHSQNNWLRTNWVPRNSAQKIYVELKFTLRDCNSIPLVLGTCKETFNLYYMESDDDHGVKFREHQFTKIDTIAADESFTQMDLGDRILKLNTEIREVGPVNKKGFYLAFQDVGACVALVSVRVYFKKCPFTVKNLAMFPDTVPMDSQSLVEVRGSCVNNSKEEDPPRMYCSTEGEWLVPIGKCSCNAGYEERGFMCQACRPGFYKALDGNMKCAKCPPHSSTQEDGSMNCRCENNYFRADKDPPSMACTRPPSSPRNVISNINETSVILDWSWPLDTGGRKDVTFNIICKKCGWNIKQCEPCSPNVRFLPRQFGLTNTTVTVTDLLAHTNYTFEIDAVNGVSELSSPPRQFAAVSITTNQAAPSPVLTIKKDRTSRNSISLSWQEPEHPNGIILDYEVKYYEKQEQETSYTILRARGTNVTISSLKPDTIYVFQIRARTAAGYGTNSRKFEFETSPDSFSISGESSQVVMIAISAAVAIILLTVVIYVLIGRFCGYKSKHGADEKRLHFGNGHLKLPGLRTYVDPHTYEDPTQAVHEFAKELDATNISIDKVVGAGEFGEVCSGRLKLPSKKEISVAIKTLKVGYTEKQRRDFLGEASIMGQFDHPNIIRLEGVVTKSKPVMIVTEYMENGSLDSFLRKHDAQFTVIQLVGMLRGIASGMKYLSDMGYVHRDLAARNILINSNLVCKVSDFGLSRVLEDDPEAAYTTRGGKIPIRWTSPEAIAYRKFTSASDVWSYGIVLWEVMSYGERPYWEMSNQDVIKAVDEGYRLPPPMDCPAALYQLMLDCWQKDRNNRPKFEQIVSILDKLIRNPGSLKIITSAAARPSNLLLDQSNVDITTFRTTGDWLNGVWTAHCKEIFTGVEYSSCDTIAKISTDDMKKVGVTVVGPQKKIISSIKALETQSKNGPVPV

[5] = target: Fibroblast growth factor receptor 4 (Homo sapiens) (UniProt P22455); assay: Inhibition of human FGFR4 at 500 nM by HotSpot assay relative to control
Chain of Fibroblast growth factor receptor 4 (Homo sapiens) (P22455 22-802 limits assumed): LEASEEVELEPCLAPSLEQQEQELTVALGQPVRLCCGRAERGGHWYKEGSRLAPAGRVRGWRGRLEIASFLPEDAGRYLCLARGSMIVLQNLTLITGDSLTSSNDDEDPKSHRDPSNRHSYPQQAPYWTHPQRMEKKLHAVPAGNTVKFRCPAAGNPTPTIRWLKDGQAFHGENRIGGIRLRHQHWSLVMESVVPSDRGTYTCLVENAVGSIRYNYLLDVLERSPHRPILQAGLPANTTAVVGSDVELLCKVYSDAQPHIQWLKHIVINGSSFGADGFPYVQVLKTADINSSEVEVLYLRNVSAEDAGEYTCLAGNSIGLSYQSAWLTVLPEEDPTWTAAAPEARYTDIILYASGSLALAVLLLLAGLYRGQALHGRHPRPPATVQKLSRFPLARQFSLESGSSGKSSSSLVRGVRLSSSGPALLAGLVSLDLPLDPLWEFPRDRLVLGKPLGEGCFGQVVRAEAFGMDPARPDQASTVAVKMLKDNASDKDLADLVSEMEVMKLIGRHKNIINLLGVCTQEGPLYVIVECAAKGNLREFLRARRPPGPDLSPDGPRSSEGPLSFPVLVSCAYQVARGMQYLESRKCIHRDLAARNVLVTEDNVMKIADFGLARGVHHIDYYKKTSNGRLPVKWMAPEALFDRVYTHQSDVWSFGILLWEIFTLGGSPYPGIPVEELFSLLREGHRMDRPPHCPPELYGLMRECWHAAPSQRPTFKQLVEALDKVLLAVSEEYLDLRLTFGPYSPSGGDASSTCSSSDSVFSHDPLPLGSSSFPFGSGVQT

[6] = target: MAP kinase-activated protein kinase 2 (Homo sapiens) (UniProt P49137); assay: Inhibition of human MAPKAPK2 at 500 nM by HotSpot assay relative to control
Chain of MAP kinase-activated protein kinase 2 (Homo sapiens) (P49137 whole entry, looked up): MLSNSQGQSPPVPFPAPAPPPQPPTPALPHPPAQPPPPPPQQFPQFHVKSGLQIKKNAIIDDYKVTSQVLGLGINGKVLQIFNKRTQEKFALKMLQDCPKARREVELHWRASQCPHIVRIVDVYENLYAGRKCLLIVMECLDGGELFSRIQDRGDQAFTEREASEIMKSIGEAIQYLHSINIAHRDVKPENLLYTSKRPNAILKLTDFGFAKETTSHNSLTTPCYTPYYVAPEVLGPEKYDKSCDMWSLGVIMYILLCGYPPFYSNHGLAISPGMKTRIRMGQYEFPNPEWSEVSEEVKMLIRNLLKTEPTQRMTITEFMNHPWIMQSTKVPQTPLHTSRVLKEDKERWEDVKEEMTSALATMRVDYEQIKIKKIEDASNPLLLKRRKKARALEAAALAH

[7] = target: T3, Mitogen-activated protein kinase 12 (Homo sapiens) (UniProt P53778); assay: Inhibition of human P38g at 500 nM by HotSpot assay relative to control
T3 sequence (whole entry): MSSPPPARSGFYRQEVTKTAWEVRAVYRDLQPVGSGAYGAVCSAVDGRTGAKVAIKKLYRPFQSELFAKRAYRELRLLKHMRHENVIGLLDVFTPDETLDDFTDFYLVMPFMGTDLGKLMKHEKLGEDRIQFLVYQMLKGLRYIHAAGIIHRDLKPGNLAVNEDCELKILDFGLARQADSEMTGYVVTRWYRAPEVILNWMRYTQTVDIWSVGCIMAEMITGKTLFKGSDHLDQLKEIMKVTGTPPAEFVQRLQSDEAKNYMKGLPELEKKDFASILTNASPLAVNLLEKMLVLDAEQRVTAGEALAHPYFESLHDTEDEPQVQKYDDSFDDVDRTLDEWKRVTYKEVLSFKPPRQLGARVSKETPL

[8] = target: T4, Tyrosine-protein kinase ZAP-70 (Homo sapiens) (UniProt P43403); assay: Inhibition of human ZAP70 at 500 nM by HotSpot assay relative to control
T4 sequence (whole entry): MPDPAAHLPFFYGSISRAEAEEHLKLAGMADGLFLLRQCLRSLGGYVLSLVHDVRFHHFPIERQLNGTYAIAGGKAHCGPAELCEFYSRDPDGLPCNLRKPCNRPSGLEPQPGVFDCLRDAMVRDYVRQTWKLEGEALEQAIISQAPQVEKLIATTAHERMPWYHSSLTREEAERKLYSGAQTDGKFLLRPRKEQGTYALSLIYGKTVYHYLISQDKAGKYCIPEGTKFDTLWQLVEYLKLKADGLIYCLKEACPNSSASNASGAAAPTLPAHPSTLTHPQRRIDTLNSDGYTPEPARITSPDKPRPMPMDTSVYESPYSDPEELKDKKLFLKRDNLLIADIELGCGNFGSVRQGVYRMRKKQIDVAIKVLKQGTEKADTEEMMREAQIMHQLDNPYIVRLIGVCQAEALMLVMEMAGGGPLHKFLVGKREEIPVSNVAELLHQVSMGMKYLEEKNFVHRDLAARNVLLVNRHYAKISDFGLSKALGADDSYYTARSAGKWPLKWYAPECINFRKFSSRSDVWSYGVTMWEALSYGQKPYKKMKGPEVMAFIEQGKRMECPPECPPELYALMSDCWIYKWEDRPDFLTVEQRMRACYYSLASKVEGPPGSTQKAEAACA

Chain of RAC-alpha serine/threonine-protein kinase (Homo sapiens) (P31749 whole entry): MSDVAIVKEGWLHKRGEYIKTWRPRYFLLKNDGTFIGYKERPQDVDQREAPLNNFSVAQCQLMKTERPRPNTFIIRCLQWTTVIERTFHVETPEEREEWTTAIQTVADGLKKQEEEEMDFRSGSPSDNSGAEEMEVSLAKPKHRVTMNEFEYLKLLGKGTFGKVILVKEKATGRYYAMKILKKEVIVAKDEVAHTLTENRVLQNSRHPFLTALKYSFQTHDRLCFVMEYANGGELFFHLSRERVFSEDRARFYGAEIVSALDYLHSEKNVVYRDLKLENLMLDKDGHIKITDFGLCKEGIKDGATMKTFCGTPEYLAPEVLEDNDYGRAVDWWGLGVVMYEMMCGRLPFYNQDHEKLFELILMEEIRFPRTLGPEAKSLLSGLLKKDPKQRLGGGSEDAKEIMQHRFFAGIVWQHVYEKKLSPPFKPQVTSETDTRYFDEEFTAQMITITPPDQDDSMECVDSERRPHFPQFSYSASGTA

SMILES | inhibition [1] | inhibition [2] | inhibition [3] | inhibition [4] | inhibition [5] | inhibition [6] | inhibition [7] | inhibition [8]
Oc1n[nH]c2nnc(-c3c(-c4ccccc4)nn4ccccc34)cc12 | 2.37% | 0.15% | 3.04% | 5.45% | -3.29% | -5.6% | -4.33% | 5.7%
Nc1n[nH]c2nnc(-c3c(-c4ccccc4)nn4ccccc34)cc12 | 1.98% | -6.71% | 0.97% | 2.18% | -3.98% | -5.26% | -3.94% | 9.86%
